Experimental data: ChEMBL document CHEMBL6127087 (Eur J Med Chem, 2024)
The source made the active and inactive calls. The rule behind the calls is not given here.

What was measured:
Mus musculus [1] = assay: (§1) Anti-inflammatory activity in LPS-induced male C57BL/6 mouse model of acute […] injury assessed as reduction in infiltration of immune cells by measuring decrease in neutrophil count at 2 to 6 mg/kg, IG preadministered with compound for 7 days followed by LPS administration and measured after 24 hrs; format: functional, organism-based; conditions: dose 2-6 mg/kg, time 8.0 day
Mus musculus [2] = assay: (§2) Anti-inflammatory activity in LPS-induced male C57BL/6 mouse model of acute […] injury assessed as reduction in MPO level in BALF at 2 to 6 mg/kg, IG preadministered with compound for 7 days followed by LPS administration and measured after 24 hrs by ELISA; format: functional, organism-based; conditions: dose 2-6 mg/kg, time 8.0 day
P2Y purinoceptor 12 = P2Y purinoceptor 12 (Homo sapiens, UniProt Q9H244); assay: Antagonist activity at human P2Y12R stably expressed in HEK293 cells assessed as inhibition of MeSADP-induced cAMP accumulation preincubated with compound for 30 mins followed by MeSADP addition by cAMP-GloTM assay; format: functional, cell-based
Chain of P2Y purinoceptor 12 (Q9H244 whole entry): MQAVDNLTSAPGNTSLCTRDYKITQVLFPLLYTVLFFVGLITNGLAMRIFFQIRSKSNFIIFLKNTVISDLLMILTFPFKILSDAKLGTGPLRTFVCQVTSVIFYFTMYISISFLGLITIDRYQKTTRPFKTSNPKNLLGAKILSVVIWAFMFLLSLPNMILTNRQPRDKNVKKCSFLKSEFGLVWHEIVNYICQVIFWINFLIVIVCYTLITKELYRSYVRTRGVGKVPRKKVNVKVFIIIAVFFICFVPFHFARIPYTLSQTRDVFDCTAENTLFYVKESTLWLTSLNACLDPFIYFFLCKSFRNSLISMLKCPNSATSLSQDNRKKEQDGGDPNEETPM

Cytochrome P450 2C19 = Cytochrome P450 2C19 (Homo sapiens, UniProt P33261); assay: Inhibition of CYP2C19 in human liver microsomes using s-mephenytoin as substrate preincubated for 10 mins followed by NADPH addition and measured after 10 mins by LC-MS/MS analysis; format: ADME, Microsome
Chain of Cytochrome P450 2C19 (P33261 whole entry): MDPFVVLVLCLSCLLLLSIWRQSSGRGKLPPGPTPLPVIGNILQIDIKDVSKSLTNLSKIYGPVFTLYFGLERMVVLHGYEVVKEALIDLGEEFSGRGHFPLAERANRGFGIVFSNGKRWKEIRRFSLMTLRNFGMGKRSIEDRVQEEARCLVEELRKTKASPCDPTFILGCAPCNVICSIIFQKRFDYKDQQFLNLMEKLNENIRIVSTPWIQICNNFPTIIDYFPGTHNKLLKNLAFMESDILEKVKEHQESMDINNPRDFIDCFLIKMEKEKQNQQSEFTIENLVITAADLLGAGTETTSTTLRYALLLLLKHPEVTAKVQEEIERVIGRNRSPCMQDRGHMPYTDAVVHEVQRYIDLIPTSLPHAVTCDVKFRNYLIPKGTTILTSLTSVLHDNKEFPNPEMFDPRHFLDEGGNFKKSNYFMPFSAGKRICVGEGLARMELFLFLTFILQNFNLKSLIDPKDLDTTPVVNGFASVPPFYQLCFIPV

Mus musculus [3] = assay: (§3) Anti-inflammatory activity in LPS-induced male C57BL/6 mouse model of acute […] injury assessed as inhibition of CXCL9 mRNA expression at 2 to 6 mg/kg, IG preadministered with compound for 7 days followed by LPS administration and measured after 24 hrs by RT-PCR analysis; format: functional, organism-based; conditions: dose 2-6 mg/kg, time 8.0 day
[4] = biological target: Voltage-gated inwardly rectifying potassium channel KCNH2 (Homo sapiens, UniProt Q12809); assay: Inhibition of human ERG by PatchXpress analysis; format: toxicity
Chain of Voltage-gated inwardly rectifying potassium channel KCNH2 (Q12809 whole entry): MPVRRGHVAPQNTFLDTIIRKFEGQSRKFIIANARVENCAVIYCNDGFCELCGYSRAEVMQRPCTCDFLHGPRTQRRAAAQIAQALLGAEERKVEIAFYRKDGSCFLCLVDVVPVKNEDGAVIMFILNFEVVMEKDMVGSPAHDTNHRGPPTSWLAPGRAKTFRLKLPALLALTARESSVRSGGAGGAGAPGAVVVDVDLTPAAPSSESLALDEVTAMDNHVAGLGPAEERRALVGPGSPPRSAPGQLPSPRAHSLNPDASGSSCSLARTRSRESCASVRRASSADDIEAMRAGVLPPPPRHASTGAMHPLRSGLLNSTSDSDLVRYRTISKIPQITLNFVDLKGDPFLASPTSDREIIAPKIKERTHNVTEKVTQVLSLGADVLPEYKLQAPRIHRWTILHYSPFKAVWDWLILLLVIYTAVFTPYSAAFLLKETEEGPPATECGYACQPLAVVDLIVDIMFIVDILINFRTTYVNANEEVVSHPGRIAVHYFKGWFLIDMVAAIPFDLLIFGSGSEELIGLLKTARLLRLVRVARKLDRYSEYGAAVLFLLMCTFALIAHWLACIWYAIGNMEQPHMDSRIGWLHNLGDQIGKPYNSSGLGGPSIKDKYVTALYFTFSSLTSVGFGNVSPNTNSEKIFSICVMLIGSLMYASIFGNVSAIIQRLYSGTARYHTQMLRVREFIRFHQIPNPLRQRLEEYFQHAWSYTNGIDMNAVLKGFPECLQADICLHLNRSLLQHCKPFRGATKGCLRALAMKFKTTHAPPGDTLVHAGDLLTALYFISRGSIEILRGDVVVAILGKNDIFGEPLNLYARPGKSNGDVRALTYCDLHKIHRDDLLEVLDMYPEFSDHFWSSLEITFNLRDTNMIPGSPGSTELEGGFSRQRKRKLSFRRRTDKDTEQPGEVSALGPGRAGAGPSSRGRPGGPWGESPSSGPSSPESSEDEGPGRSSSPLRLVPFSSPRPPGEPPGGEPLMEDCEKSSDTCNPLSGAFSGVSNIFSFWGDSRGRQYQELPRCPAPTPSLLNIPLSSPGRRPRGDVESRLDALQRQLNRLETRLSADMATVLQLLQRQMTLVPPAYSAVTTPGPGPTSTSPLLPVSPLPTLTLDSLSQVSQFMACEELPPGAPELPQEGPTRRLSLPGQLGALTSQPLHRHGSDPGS

Mus musculus [5] = assay: Anti-inflammatory activity in LPS-induced male C57BL/6 mouse model of acute […] injury assessed as reduction in neutrophil elastase level in BALF at 2 to 6 mg/kg, IG preadministered with compound for 7 days followed by LPS administration and measured after 24 hrs by ELISA; format: functional, organism-based; conditions: dose 2-6 mg/kg, time 8.0 day
Mus musculus [6] = assay: Anti-inflammatory activity in LPS-induced male C57BL/6 mouse model of acute […] injury assessed as reduction in infiltration of immune cells by measuring decrease in WBC count at 2 to 6 mg/kg, IG preadministered with compound for 7 days followed by LPS administration and measured after 24 hrs; format: functional, organism-based; conditions: dose 2-6 mg/kg, time 8.0 day
[7] = AUC (0 to 24 hrs) in male Sprague-Dawley rat at 10 mg/kg, iv measured after 24 hrs by LC-MS/MS analysis; format: ADME, organism-based; conditions: in vivo
Mus musculus [8] = assay: as §2, with “lung permeability by measuring tight junction associated proteins” for “MPO level in BALF”, “immunofluorescence analysis” for “ELISA”; format: functional, organism-based; conditions: dose 2-6 mg/kg, time 8.0 day
Mus musculus [9] = assay: as §2, with “tissue destruction” for “MPO level”, “lung” for “BALF”, “H and E staining based histopathological analysis” for “ELISA”; format: functional, organism-based; conditions: dose 2-6 mg/kg, time 8.0 day
[10] = Metabolic stability in human liver microsomes assessed as intrinsic clearance preincubated for 10 mins followed by NADPH addition and measured upto 60 mins by LC-MS/MS analysis; format: ADME, Microsome; conditions: time < 70 min, read-out: CLH
Cytochrome P450 2C9 = Cytochrome P450 2C9 (Homo sapiens, UniProt P11712); assay: Inhibition of CYP2C9 in human liver microsomes using diclofenac as substrate preincubated for 10 mins followed by NADPH addition and measured after 10 mins by LC-MS/MS analysis; format: ADME, Microsome
Chain of Cytochrome P450 2C9 (P11712 whole entry): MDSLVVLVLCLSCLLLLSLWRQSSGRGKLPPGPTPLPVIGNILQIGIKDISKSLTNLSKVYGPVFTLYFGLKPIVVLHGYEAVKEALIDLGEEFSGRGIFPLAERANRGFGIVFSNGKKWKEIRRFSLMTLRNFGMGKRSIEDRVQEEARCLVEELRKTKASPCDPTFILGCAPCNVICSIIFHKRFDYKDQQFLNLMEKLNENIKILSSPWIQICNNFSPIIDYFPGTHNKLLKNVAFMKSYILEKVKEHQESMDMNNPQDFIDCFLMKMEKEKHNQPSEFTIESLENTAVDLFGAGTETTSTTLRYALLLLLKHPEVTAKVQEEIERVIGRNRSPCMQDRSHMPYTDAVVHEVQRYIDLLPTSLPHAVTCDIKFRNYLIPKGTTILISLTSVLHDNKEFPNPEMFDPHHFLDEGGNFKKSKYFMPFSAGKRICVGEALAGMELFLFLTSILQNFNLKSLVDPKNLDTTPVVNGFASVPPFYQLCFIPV

Mus musculus [11] = assay: Anti-inflammatory activity in LPS-induced male C57BL/6 mouse model of acute […] injury assessed as inhibition of CXCL1 release at 2 to 6 mg/kg, IG preadministered with compound for 7 days followed by LPS administration and measured after 24 hrs by ELISA; format: functional, organism-based; conditions: dose 2-6 mg/kg, time 8.0 day
Cytochrome P450 2D6 = Cytochrome P450 2D6 (Homo sapiens, UniProt P10635); assay: Inhibition of CYP2D6 in human liver microsomes using […] as substrate preincubated for 10 mins followed by NADPH addition and measured after 10 mins by LC-MS/MS analysis; format: ADME, Microsome
Chain of Cytochrome P450 2D6 (P10635 whole entry): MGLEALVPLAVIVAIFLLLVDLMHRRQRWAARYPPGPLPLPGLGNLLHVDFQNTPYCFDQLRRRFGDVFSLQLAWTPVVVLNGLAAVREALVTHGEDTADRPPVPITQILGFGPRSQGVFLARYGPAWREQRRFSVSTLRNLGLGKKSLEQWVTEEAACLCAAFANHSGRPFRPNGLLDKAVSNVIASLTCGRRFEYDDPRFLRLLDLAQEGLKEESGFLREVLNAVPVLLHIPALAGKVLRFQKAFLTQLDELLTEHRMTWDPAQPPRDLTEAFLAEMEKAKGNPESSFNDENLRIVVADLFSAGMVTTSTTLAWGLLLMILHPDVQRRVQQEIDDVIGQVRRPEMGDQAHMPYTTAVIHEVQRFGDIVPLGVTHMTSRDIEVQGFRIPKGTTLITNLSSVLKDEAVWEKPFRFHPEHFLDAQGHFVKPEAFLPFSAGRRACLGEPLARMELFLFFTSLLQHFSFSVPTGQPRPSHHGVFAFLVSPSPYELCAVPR

[12] = biological target: P2Y purinoceptor 1 (Homo sapiens) (UniProt P47900); assay: Antagonist activity at human P2Y1R stably expressed in HEK293 cells assessed as inhibition of ADP-induced IP3 accumulation preincubated with compound for 30 mins followed by ADP addition by ELISA; format: functional, cell-based
Chain of P2Y purinoceptor 1 (Homo sapiens) (P47900 whole entry): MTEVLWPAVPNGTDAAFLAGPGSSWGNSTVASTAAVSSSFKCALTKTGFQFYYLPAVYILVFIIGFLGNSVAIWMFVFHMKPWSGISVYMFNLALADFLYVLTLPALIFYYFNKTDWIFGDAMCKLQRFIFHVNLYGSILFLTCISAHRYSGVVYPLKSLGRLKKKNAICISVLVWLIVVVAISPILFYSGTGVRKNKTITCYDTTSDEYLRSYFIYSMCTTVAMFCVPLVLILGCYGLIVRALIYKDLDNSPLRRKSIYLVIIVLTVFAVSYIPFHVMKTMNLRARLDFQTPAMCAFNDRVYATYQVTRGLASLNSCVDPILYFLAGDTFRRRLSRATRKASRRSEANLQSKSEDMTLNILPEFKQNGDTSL

Mus musculus [13] = assay: as §2, with “hyperemia of pulmonary alveolar septa” for “MPO level”, “lung” for “BALF”, “H and E staining based histopathological analysis” for “ELISA”; format: functional, organism-based; conditions: dose 2-6 mg/kg, time 8.0 day
Mus musculus [14] = assay: Anti-inflammatory activity in LPS-induced male C57BL/6 mouse model of acute […] injury assessed as reduction in IL-6 level in BALF at 2 to 6 mg/kg, IG preadministered with compound for 7 days followed by LPS administration and measured after 24 hrs by ELISA; format: functional, organism-based; conditions: dose 2-6 mg/kg, time 8.0 day
P2Y purinoceptor 6 = P2Y purinoceptor 6 (Homo sapiens, UniProt Q15077); assay: Antagonist activity at human P2Y6R expressed in CHO cells assessed as inhibition of UDP sodium salt-induced Ca2+ level by FLIPR calcium 6 assay; format: functional, cell-based
Chain of P2Y purinoceptor 6 (Q15077 whole entry): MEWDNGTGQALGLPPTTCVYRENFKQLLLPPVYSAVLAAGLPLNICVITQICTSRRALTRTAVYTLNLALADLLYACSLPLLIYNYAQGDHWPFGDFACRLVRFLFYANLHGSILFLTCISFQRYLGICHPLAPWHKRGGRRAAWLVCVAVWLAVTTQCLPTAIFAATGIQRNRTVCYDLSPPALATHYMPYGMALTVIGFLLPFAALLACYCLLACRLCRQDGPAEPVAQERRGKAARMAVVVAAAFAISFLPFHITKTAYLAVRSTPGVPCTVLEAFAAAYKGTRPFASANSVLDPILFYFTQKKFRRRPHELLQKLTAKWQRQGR

Mus musculus [15] = assay: as §3, with “intact appearance” for “inhibition”, “alveolar structure in lung” for “CXCL9 mRNA expression”, “H and E staining based histopathological” for “RT-PCR”; format: functional, organism-based; conditions: dose 2-6 mg/kg, time 8.0 day
HUVEC = assay: Cytotoxicity against HUVEC cells assessed as reduction in cell survival at >10 uM incubated for 12 to 24 hrs by CCK8 assay; format: toxicity, cell-based; conditions: human, time 12-24 hrs
[16] = biological target: P2Y purinoceptor 2 (Homo sapiens) (UniProt P41231); assay: Antagonist activity at human P2Y2R stably expressed in HEK293 cells assessed as inhibition of UTP-induced IP3 accumulation preincubated with compound for 30 mins followed by UTP addition by ELISA; format: functional, cell-based
Chain of P2Y purinoceptor 2 (Homo sapiens) (P41231 whole entry): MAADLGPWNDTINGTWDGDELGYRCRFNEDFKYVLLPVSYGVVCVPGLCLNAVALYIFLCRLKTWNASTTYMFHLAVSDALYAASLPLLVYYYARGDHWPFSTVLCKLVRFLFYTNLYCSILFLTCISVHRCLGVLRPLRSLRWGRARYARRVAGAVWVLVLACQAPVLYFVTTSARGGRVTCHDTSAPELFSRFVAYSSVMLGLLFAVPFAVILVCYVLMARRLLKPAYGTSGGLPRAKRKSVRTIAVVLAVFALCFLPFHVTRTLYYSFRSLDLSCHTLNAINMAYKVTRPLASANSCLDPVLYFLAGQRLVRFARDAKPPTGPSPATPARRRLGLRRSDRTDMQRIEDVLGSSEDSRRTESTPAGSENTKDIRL

Mus musculus [17] = assay: Anti-inflammatory activity in LPS-induced male C57BL/6 mouse model of acute […] injury assessed as reduction in IL-1beta level in BALF at 2 to 6 mg/kg, IG preadministered with compound for 7 days followed by LPS administration and measured after 24 hrs by ELISA; format: functional, organism-based; conditions: dose 2-6 mg/kg, time 8.0 day
Mus musculus [18] = assay: as §2, with “alveolar septa thickening” for “MPO level”, “lung” for “BALF”, “H and E staining based histopathological analysis” for “ELISA”; format: functional, organism-based; conditions: dose 2-6 mg/kg, time 8.0 day
[19] = Cmax in male Sprague-Dawley rat at 10 mg/kg, iv measured after 24 hrs by LC-MS/MS analysis; format: ADME, organism-based; conditions: male, Sprague-Dawley, in vivo, read-out: Cmax
[20] = Half-life in male Sprague-Dawley rat at 20 mg/kg, po measured after 24 hrs by LC-MS/MS analysis; format: ADME, organism-based; conditions: male, Sprague-Dawley, in vivo
[21] = Tmax in male Sprague-Dawley rat at 20 mg/kg, po measured after 24 hrs by LC-MS/MS analysis; format: ADME, organism-based; conditions: male, Sprague-Dawley, in vivo, read-out: Tmax (converted)
[22] = Cmax in male Sprague-Dawley rat at 20 mg/kg, po measured after 24 hrs by LC-MS/MS analysis; format: ADME, organism-based; conditions: male, Sprague-Dawley, in vivo, read-out: Cmax
Mus musculus [23] = assay: as §1, with “monocytes” for “neutrophil”; format: functional, organism-based; conditions: dose 2-6 mg/kg, time 8.0 day
Mus musculus [24] = assay: as §3, with “absence” for “inhibition”, “lesion in lung parenchyma” for “CXCL9 mRNA expression”, “H and E staining based histopathological” for “RT-PCR”; format: functional, organism-based; conditions: dose 2-6 mg/kg, time 8.0 day

- Activity (P2Y purinoceptor 12): inactive
- IC50 (Cytochrome P450 2C19): > 50 µM
- AUC [7]: 1956 ng·h/mL
- microsomal CLint [10]: 18.6 µL/min/mg
- IC50 (Cytochrome P450 2C9): 23.6 µM
- IC50 (Cytochrome P450 2D6): > 50 µM
- Activity [12]: inactive
- IC50 (P2Y purinoceptor 6): 0.0196 µM
- Activity [16]: inactive
- Cmax [19]: 1410 ng/mL
- half-life [20]: 5.2 h
- Tmax [21]: 0.767 h
- Cmax [22]: 2940 ng/mL
Compound: O=C(O)CCC(=O)N1N=C(c2ccc[nH]2)CC1c1cnc2ccccc2c1 (stereo not given)
- Activity (Mus musculus [1]): Active
- Activity (Mus musculus [2]): Active
- Activity (Mus musculus [3]): Active
- IC50 [4]: > 50 µM
- Activity (Mus musculus [5]): Active
- Activity (Mus musculus [6]): Active
- Activity (Mus musculus [8]): Active
- Activity (Mus musculus [9]): Active
- Activity (Mus musculus [11]): Active
- Activity (Mus musculus [13]): Active
- Activity (Mus musculus [14]): Active
- Activity (Mus musculus [15]): Active
- Activity (HUVEC): Non-Toxic
- Activity (Mus musculus [17]): Active
- Activity (Mus musculus [18]): Active
- Activity (Mus musculus [23]): Active
- Activity (Mus musculus [24]): Active
